Data taken from ChEMBL document CHEMBL6083240, “Design, synthesis and biological evaluation of arylpropylamine derivatives as potential multi-target antidepressants” (Bioorg Med Chem, 2024).

How the values were obtained:
[1] = target: Sodium-dependent serotonin transporter (Rattus norvegicus) (UniProt P31652); assay: Agonist activity at rat cerebral cortex membrane SERT at 10 uM incubated for 10 mins in presence of [3H]5-HT relative to control; assay type: cell membranes
[2] = test system: Mus musculus; assay: Antidepressant activity in IG dosed Kunming mouse assessed as decrease in immobility time by measuring minimal effective dose by forced swimming test; assay type: functional
[3] = target: Alpha-2A adrenergic receptor (Homo sapiens, UniProt P08913); assay: Binding affinity to alpha-2 adrenergic receptor (unknown origin)
Sequence of Alpha-2A adrenergic receptor (P08913 whole entry): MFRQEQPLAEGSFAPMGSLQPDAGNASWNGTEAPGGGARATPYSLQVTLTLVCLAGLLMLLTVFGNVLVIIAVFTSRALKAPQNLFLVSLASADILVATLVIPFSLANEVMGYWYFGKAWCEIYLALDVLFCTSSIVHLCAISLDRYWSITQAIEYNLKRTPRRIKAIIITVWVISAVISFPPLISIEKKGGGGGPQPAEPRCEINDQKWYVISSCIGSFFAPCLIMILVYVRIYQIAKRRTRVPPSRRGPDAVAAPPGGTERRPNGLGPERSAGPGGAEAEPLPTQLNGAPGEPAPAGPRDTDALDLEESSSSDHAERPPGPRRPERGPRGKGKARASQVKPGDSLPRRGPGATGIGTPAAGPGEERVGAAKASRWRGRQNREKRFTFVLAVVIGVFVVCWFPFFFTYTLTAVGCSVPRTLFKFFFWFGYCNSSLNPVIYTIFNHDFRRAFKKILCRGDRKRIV

[4] = Tmax in CD1 mouse at 15 mg/kg, po measured upto 24 hrs by LC-MS analysis; assay type: ADME, organism-based; settings: in vivo
[5] = Oral bioavailability in CD1 mouse at 15 mg/kg measured upto 24 hrs by LC-MS analysis; assay type: ADME, organism-based; settings: in vivo

Sequence of Sodium-dependent serotonin transporter (Rattus norvegicus) (P31652 whole entry): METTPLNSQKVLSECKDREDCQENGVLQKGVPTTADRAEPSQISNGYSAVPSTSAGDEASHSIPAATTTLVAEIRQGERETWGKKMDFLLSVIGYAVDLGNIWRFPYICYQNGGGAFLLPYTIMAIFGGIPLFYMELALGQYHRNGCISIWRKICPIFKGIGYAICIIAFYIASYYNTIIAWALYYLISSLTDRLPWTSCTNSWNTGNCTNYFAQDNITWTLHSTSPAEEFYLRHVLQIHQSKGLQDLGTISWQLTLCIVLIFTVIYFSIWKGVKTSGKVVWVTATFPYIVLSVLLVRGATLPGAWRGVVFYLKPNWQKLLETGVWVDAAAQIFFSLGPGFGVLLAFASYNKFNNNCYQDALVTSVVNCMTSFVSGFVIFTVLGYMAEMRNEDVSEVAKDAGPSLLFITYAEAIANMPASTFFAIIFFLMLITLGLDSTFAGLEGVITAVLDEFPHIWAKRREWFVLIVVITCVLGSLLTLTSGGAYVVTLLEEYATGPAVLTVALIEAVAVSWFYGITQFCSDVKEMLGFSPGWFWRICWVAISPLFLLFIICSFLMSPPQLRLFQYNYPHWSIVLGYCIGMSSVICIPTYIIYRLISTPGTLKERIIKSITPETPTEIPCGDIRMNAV

CN(C)CC[C@@H](Oc1cccc2c1OCO2)c1ccc(F)cc1.O=C(O)C(=O)O
Activity [1]: 2.2%
Activity [2]: Dose-dependent-effect
minimal effective dose ([2]; po, read-out: MED): 6.4 mg/kg
Ki [3]: > 1000 nM
Tmax [4]: 30 min
bioavailability [5]: 20.3%
